Data taken from PMC8592419 (PLoS ONE, 2021).
≈ marks a conversion by molar mass, not a printed value. Where a SMILES comes first, the peptide text is derived from it.

How the values were obtained:
[1] = system: clinical isolates of M. abscessus; test: In vitro susceptibility of potential AMPs, 3 days, summary over isolates; type: cell-based, Mycobacterium abscessus; conditions: isolates MAB01 and MAB03
Description: (§1) Briefly, serial dilutions of the AMPs were prepared with potassium phosphate buffer (PPB) from the concentration range of 3.125 to 400 μg/ml and then 50 μl of each dilution were added to each 96-well plate. Colonies of the isolate were suspended and then further diluted in Mueller-Hinton broth to obtain a final concentration of 1×10^3 CFU/ml (optimized according to the available AMP stock concentration). Fifty microliters of this inoculum were added to each well of the plates. The plates were incubated for 3 days at 37°C. Plain media and bacterial suspensions without AMPs were used as negative and positive controls. The MIC values were read and recorded. All assays were performed in duplicate and two independent experiments.
(§2) For the in vitro antimicrobial susceptibility, the same protocol as described above was used. The culture plates were further incubated up to 3 days at 37°C. The MIC values were read and recorded.

[2] = system: sixteen clinical Mab isolates; test: 24-hour bactericidal activity assay, summary over isolates; type: cell-based, Mycobacterium abscessus; conditions: majority of the tested strains (10/16 isolates); equivalent of <50 μg/ml
Description: as §1
Potential AMPs from the screening assays were subjected to determine the 24-hour bactericidal activity assays (corresponding to the common time of administration) with sixteen clinical Mab isolates using the protocol as described above. To observe the early antimicrobial activities, the plates were incubated for 24 h at 37°C. The samples from each well were further diluted in 0.05% Tween 80 and inoculated on Mueller-Hinton agar. After incubation for 3 days at 37°C, the colony-forming units (CFUs) were counted and calculated for the percentage of killing using the following formula: % killing = 1 - (CFU sample/ CFU control) ×100.

[3] = system: M. abscessus clinical isolate MAB14; test: microbe, parasite or virus in culture; type: cell-based, M. abscessus subsp. massiliense; conditions: MAB14
Description: (§3) Mab suspensions at a 5×10^5 CFU/ml final concentration were added to each well and incubated for 3 days and 14 days at 37°C. MIC values were defined when the percent killing of CFUs of more than 90% were compared to the media controls without AMPs or drugs. The fraction inhibitory concentration index (FICI) was calculated using the following formula: FICI = [C(MIC^A)/MIC^A] + [C(MIC^B)/MIC^B]. […] For interpretation, FICI ≤ 0.5 was interpreted as synergism, FICI >0.5–1.0 was interpreted as additive, FICI >1.0–4.0 was interpreted as indifferent and FICI >4.0 was interpreted as antagonism.

[4] = system: M. abscessus clinical isolate MAB12; test: microbe, parasite or virus in culture; type: cell-based, M. abscessus subsp. massiliense; conditions: MAB12
Description: as §3

[5] = system: M. abscessus clinical isolate MAB03; test: microbe, parasite or virus in culture; type: cell-based, M. abscessus subsp. abscessus; conditions: MAB03
Description: as §3

[6] = system: M. abscessus clinical isolate MAB09; test: microbe, parasite or virus in culture; type: cell-based, M. abscessus subsp. abscessus; conditions: MAB09
Description: as §3

[7] = system: M. abscessus clinical isolate MAB02; test: microbe, parasite or virus in culture; type: cell-based, M. abscessus subsp. abscessus; conditions: MAB02
Description: as §3

[8] = system: M. abscessus clinical isolate MAB11; test: microbe, parasite or virus in culture; type: cell-based, M. abscessus subsp. abscessus; conditions: MAB11
Description: as §3

[9] = system: M. abscessus clinical isolate MAB01; test: microbe, parasite or virus in culture; type: cell-based, M. abscessus subsp. abscessus; conditions: MAB01; AMP + CLA; mean ± S.D., two independent experiments
Description: as §3

[10] = system: M. abscessus clinical isolate MAB05; test: microbe, parasite or virus in culture; type: cell-based, M. abscessus subsp. abscessus; conditions: MAB05
Description: as §3

[11] = system: M. abscessus clinical isolate MAB10; test: microbe, parasite or virus in culture; type: cell-based, M. abscessus subsp. abscessus; conditions: MAB10
Description: as §3

[12] = system: M. abscessus clinical isolate MAB07; test: microbe, parasite or virus in culture; type: cell-based, M. abscessus subsp. abscessus; conditions: MAB07
Description: as §3

[13] = system: M. abscessus clinical isolate MAB16; test: In vitro antimicrobial susceptibility of potential AMPs, broth microdilution, 3 days; type: cell-based, M. abscessus subsp. massiliense; conditions: 3 days at 37°C
Description: as §1, §2

[14] = system: M. abscessus clinical isolate MAB15; test: as above; type: cell-based, M. abscessus subsp. massiliense; conditions: 3 days at 37°C
Description: as §1, §2

[15] = system: M. abscessus clinical isolate MAB06; type: cell-based, M. abscessus subsp. abscessus; conditions: 3 days at 37°C
Description: as §1, §2

[16] = system: M. abscessus clinical isolate MAB13; type: cell-based, M. abscessus subsp. massiliense; conditions: 3 days at 37°C
Description: as §1, §2

[17] = AMP + CLA, mean ± S.D., two independent experiments

CC[C@H](C)[C@H](NC(=O)[C@H](CCCCN)NC(=O)[C@H](CCCNC(=N)N)NC(=O)CNC(=O)[C@H](CC(C)C)NC(=O)[C@H](CO)NC(=O)[C@H](CCCNC(=N)N)NC(=O)[C@H](CC(C)C)NC(=O)CNC(=O)CN)C(=O)N[C@@H](CC(C)C)C(=O)N[C@@H](CCCNC(=N)N)C(=O)N[C@@H](C)C(=O)N[C@@H](Cc1c[nH]c2ccccc12)C(=O)N[C@@H](CCCCN)C(=O)N[C@@H](CCCCN)C(=O)N[C@@H](Cc1ccc(O)cc1)C(=O)O [S61] (H-GGLRSLGRKILRAWKKY-OH)
MIC values after 3 days [1]: 3.13 µM (≈ 6.27 µg/mL) | MIC with ~99% killed within 24 h, in μM [2]: less than 24.97 μM | FICI [3, 17]: 0.10±0.04 | MIC, AMP alone ([3]; AMP alone): >400 µg/mL | FICI [4, 17]: 1.01±0.00 | MIC, AMP alone ([4]; AMP alone): >400 µg/mL | FICI [5, 17]: 0.28±0.00 | MIC, AMP alone ([5]; AMP alone): 6.25 µg/mL | FICI [6, 17]: 1.01±0.00 | MIC, AMP alone ([6]; AMP alone): >400 µg/mL | FICI [7, 17]: 1.02±0.00 | MIC, AMP alone ([7]; AMP alone): >400 µg/mL | FICI [8, 17]: 0.67±0.08 | MIC, AMP alone ([8]; AMP alone): >400 µg/mL | FICI [9]: 0.41±0.17 | FICI [10, 17]: 1.01±0.00 | MIC, AMP alone ([10]; AMP alone): >400 µg/mL | FICI [11, 17]: 0.05±0.00 | MIC, AMP alone ([11]; AMP alone): >400 µg/mL | FICI [12, 17]: 0.03±0.00 | MIC, AMP alone ([12]; AMP alone): >400 µg/mL | Antimicrobial peptides against M. abscessus isolates, MIC value [13]: >400 µg/mL | Antimicrobial peptides against M. abscessus isolates, MIC value [14]: >400 µg/mL | Antimicrobial peptides against M. abscessus isolates, MIC value [15]: >400 µg/mL | Antimicrobial peptides against M. abscessus isolates, MIC value [16]: >400 µg/mL
